Assay: xn = mol fraction of the nth substance listed
Settings: 100 kPa

CC[n+]1ccn(C)c1.O=S(=O)([O-])O + OCCO
viscosity [mPa·s]
Settings	x1 = 0.125	x1 = 0.143	x1 = 0.167	x1 = 0.2	x1 = 0.25	x1 = 0.33	x1 = 0.5
298.15 K	19	21	24	28	35	52	95
303.15 K	–	17	20	23	29	43	–
308.15 K	13	15	17	19	–	35	62
313.15 K	11	–	14	16	20	–	50
318.15 K	9	11	–	14	18	25	42
323.15 K	8	9	10	12	15	–	35
